Laboratory results from paper PMC8591201, “Anti-Tumor Activity of AZD4547 Against NTRK1 Fusion Positive Cancer Cells Through Inhibition of NTRKs” (Frontiers in Oncology, 2021).

Tests used:
Assay in all cases: cells
Set-up in all cases: Anti-proliferation, 10-point dose response, CellTiter-Glo luminescence (MTT stated for KM12(Luc)), GI50 fitted in Prism
MV-4-11 = conditions: Homo sapiens, MV4-11, 72 h, read-out: GI50 (µM) a
Protocol: (§1) To obtain the GI50 value of a substance, cell viability was measured using MTT (G4000, Promega, USA) for KM12(Luc) cell and Cell titer glo (G7572, Promega, USA) for other cell lines. For adherent cells, cells were seeded at 5,000 cells/well in a 96-well plate and treated with a substance one day after cell seeding. For suspension cells, 10,000 cells/well were seeded and the substance was treated after 4 h stabilization of cells. The substance was treated at 10 points of 1:3 serial dilution (0–100 µmol/L) for 72 h. For MTT assay, 15 µL dye solution was added to each well and incubated 4 h at 37°C. 100 µL of solubilization solution was added and followed 1 hr incubation. Absorbance at 570 nm of each well was recorded using EnVision microplate reader (Perkin Elmer). For Cell titer glo assay, Cell titer glo reagent was treated in each well and measured the luminescence by EnVision microplate reader (Perkin Elmer). Viable cells in each well were normalized by using 0.5% DMSO-treated wells (100%). The inhibitor dose−response curve was fitted and GI50 values were calculated using Prism 7.0 software (GraphPad). All assays were performed in duplicate and the standard deviation (SD) was determined from two independent experiments. KM12(Luc) was purchased from the JCRB cell bank. KM12 (Luc) was used within 6 months after purchase and the DNA profiles were confirmed using a short tandem repeat (STR) analysis by the Korean Cell Line Bank. KM12(Luc) cells were maintained in DMEM supplemented with 10% FBS and antibiotics. Parental Ba/F3 cells were purchased from DSMZ and were grown in RPMI1640 supplemented with 10% FBS and antibiotics in the presence of IL3, Transformed Ba/F3 cell lines were grown in the same media without IL3. Cells used in this study were negative for mycoplasma contamination. AN3-CA, HEC1A, U138, 8505C, MKN28, MKN45, A172, A375, Capan-1 HeLa, HEP3B, MCF-7 and MIA-paca-2 cells were maintained in DMEM (Welgene, Korea) supplemented with 10% FBS and antibiotics (Welgene, Korea). Otherwise, all cells were maintained in RPMI (Welgene, Korea) supplemented with 10% FBS and antibiotics (Welgene, Korea). To identify AZD4547 sensitive cell lines other than FGFR-mutant driven cancer cells, GI50 values were determined for AZD4547 against 64 different cancer cell lines, including AN3-CA used as a positive control ( Figure 1A and Table S1 ). […] Also, inhibitory activity of AZD4547 against DDR1 or FLT3 allows suppression of proliferation of U-2-OS and MV4-11 ([43]). Therefore, our attention focused on the inhibitory activity of AZD4547 against KM12(Luc) cell lines which have the TPM3-NTRK1 fusion gene. To exclude the possibility that the anti-proliferation activity of AZD4547 against KM12(Luc) is a common characteristic of FGFR inhibitors, we determined if BGJ398, a representative FGFR inhibitor, is also capable of suppressing proliferation of KM12(Luc) cells ( Figure 1B ).

NCI-H417 = conditions: Homo sapiens, NCI-H417, 72 h, read-out: GI50 (µM) a
Protocol: as §1

U-87-MG = conditions: Homo sapiens, U-87 MG, 72 h, read-out: GI50 (µM) a
Protocol: as §1

A375 = conditions: Homo sapiens, A-375, 72 h, read-out: GI50 (µM) a
Protocol: as §1

DLD-1 = conditions: Homo sapiens, DLD-1, 72 h, read-out: GI50 (µM) a
Protocol: as §1

HCC-78 = conditions: Homo sapiens, HCC78, 72 h, read-out: GI50 (µM) a
Protocol: as §1

A172 = conditions: Homo sapiens, A 172, 72 h, read-out: GI50 (µM) a
Protocol: as §1

NCI-H1666 = conditions: Homo sapiens, NCI-H1666, 72 h, read-out: GI50 (µM) a
Protocol: as §1

HT-29 = conditions: Homo sapiens, HT-29, 72 h, read-out: GI50 (µM) a
Protocol: as §1

LNCaP = conditions: Homo sapiens, LNCaP, 72 h, read-out: GI50 (µM) a
Protocol: as §1

MIA-PaCa-2 = conditions: Homo sapiens, MIA PaCa-2, 72 h, read-out: GI50 (µM) a
Protocol: as §1

NCI-H2087 = conditions: Homo sapiens, NCI-H2087, 72 h, read-out: GI50 (µM) a
Protocol: as §1

COc1cc(CCc2cc(NC(=O)c3ccc(N4C[C@@H](C)N[C@@H](C)C4)cc3)n[nH]2)cc(OC)c1 [AZD4547]
GI50 (MV-4-11): 0.93 µM
GI50 (NCI-H417): 5.99 µM
GI50 (U-87-MG): 8.94 µM
GI50 (A375): 11.4 µM
GI50 (DLD-1): 27.5 µM
GI50 (HCC-78): 7.17 µM
GI50 (A172): 2.18 µM
GI50 (NCI-H1666): 10.8 µM
GI50 (HT-29): 9.63 µM
GI50 (LNCaP): 22.7 µM
GI50 (MIA-PaCa-2): 12.2 µM
GI50 (NCI-H2087): 27.4 µM
